In patent US10363239B2, “Method for inhibiting growth of cancer cells” (Pain Therapeutics, Inc., priority 2013, dated 2019):
Like-named read-outs stand apart in the source and are kept apart here.

Experiments:
[1] = biological target: FLNA pentapeptide of SEQ ID NO: 1 (Bn-VAKGL) (Homo sapiens, UniProt P21333); assay: FITC-NLX-based FLNA screening assay (inhibition of FITC-naloxone binding to Bn-VAKGL on streptavidin plates); settings: 10 nM FITC-NLX
[2] = tested on: mu opiate receptor (MOR); assay: MOR agonist activity using [35S]GTPγS binding assay in striatal membranes; assay type: biochemical; settings: for MOR agonist activity ([35S]GTPγS binding), FLNA-Binding Compound as Agonist 0.1 μM: 0.1 μM compound; for % DAMGO (0.1 μM): 0.1 μM compound relative to DAMGO; for MOR agonist activity ([35S]GTPγS binding), FLNA-Binding Compound as Agonist 1 μM: 1 μM compound; for MOR agonist activity ([35S]GTPγS binding), FLNA-Binding Compound as Agonist 1 μM + BFNA: 1 μM compound + 1 μM β-funaltrexamine; for % DAMGO + BFNA: 1 μM compound + BFNA relative to DAMGO + BFNA; for % DAMGO (1 μM): 1 μM compound relative to DAMGO
Outline: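 Striatal membranes (200 μg) were preincubated 5 min at 30 °C in HEPES pH 7.5 with 100 mM NaCl, 1 mM MgCl2 and 0.5 nM [35S]GTPγS, then 5 min more with 0.1–10 μM compound. Gαo was immunoprecipitated and bound radioactivity counted by scintillation.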

[3] = FLNA-binding compound 0.01 μM, read-out: Percent Binding Inhibition
[4] = FLNA-binding compound 0.1 μM, read-out: Percent Binding Inhibition
[5] = FLNA-binding compound 1 μM, read-out: Percent Binding Inhibition
[6] = read-out: Percent Binding Inhibition, FLNA-binding compound 0.01 μM
[7] = read-out: Percent Binding Inhibition, FLNA-binding compound 0.1 μM
[8] = read-out: Percent Binding Inhibition, FLNA-binding compound 1 μM

SMILES | inhibition at 0.01 µM [1, 3] | inhibition at 0.1 µM [1, 4] | inhibition at 1 µM [1, 5] | MOR agonist activity ([35S]GTPγS binding), FLNA-Binding Compound as Agonist 0.1 μM [2] | % DAMGO (0.1 μM) [2] | MOR agonist activity ([35S]GTPγS binding), FLNA-Binding Compound as Agonist 1 μM [2] | MOR agonist activity ([35S]GTPγS binding), FLNA-Binding Compound as Agonist 1 μM + BFNA [2] | % DAMGO + BFNA [2] | % DAMGO (1 μM) [2] | inhibition at 0.01 µM [1, 6] | inhibition at 0.1 µM [1, 7] | inhibition at 1 µM [1, 8] | Percent Binding Inhibition ([1]; FLNA-binding compound 0.01 μM) | Percent Binding Inhibition ([1]; FLNA-binding compound 0.1 μM) | Percent Binding Inhibition ([1]; FLNA-binding compound 1 μM)
OC(COc1ccc(Br)c(F)c1)CN1CCc2ccccc2C1 (stereo not drawn) [Compound A0057] | 29.1% | 37% | 43.4% | 124.2% | 79.6% | 192.1% | 44.8% | 112.3% | 83.3% |  |  |  |  |  | 
OC(COc1ccc(Br)c(F)c1)CN1CCCCC1 (stereo not drawn) [Compound A0058] |  |  |  | 70.7% | 45.3% | 244.3% | 59.9% | 150.1% | 106.0% | 28.9% | 36.6% | 42.1% |  |  | 
OC(COc1ccc(Br)c(F)c1)CN1CCSCC1 (stereo not drawn) [Compound A0059] |  |  |  | 99.2% | 63.5% | 129.9% | 85.7% | 214.8% | 56.4% | 27.4% | 36.6% | 38.7% |  |  | 
CC1CCC(C(C)C)C(OCC(O)CN2CCC(=O)CC2)C1 (stereo not drawn) [Compound A0060] |  |  |  | 99.7% | 63.9% | 158.2% | 14.3% | 35.8% | 68.6% | 32.4% | 39% | 42% |  |  | 
COc1c2c(cc3c1OCO3)CCN(CC(O)COC1CC(C)CCC1C(C)C)C2 (stereo not drawn) [Compound A0061] | 27.5% | 38.9% | 42.8% | 110.3% | 70.7% | 197.1% | 10.7% | 26.8% | 85.5% |  |  |  |  |  | 
CC1CCC(C(C)C)C(OCC(O)CN2CCc3ccccc32)C1 (stereo not drawn) [Compound A0065] |  |  |  | 197.6% | 126.6% | 266.8% | 44.9% | 112.5% | 115.7% |  |  |  | 38.7% | 50.0% | 50.8%
CC1CCC(C(C)C)C(OCC(O)CN2CCOc3ccccc32)C1 (stereo not drawn) [Compound A0066] |  |  |  | 151.9% | 88.3% | 195.6% | 59.2% | 171.6% | 89.0% |  |  |  | 36.7% | 45.4% | 53.7%
COc1ccc(OCC(O)CN2CCCc3ccccc32)cc1 (stereo not drawn) [Compound A0067] |  |  |  | 170.8% | 99.2% | 254.4% | 33.9% | 98.3% | 115.8% |  |  |  | 32.7% | 39.1% | 44.3%
CC1CCC(C(C)C)C(OCC(O)CN2CCCc3ccccc32)C1 (stereo not drawn) [Compound A0068] |  |  |  | 73.9% | 36.8% | 110.4% | 98.1% | 182.0% | 35.2% | 51.9% | 54.2% | 58.3% |  |  | 
COc1ccc(OCC(O)CN2CCc3cc4c(c(OC)c3C2)OCO4)cc1 (stereo not drawn) [Compound A0070] |  |  |  | 128.6% | 74.7% | 195.3% | 80.3% | 232.8% | 88.9% |  |  |  | 32.9% | 39.1% | 41.7%
COc1ccc(OCC(O)CN2CCOc3ccccc32)cc1 (stereo not drawn) [Compound A0076] | 36.1% | 40% | 44.9% | 79.8% | 46.4% | 172.6% | 41.2% | 119.4% | 78.6% |  |  |  |  |  | 
COc1ccc(OCC(O)Cn2ccc3ccccc32)cc1 (stereo not drawn) [Compound A0077] | 41.1% | 48.7% | 49.4% | 300.1% | 170.5% | 334.7% | 103.5% | 470.5% | 132.3% |  |  |  |  |  | 
